Results from PMC11755709, “Cytotoxicity and Oxidative Stress Induced by Technology-Critical Elements versus Traditional Metal Contaminants: An In Vitro Bioassay Study” (Environmental Science & Technology, 2025).
pIC50: −log10 of the molar value. Entries after “also recorded” stand apart in the source; their conditions may differ. Read-outs that look alike come from different tables or passages of the source.

Columns and labels:
[1] = test system: nuclear factor erythroid 2-related factor 2 (Nrf2) pathway; assay type: cell-based, human; details: for ECIR1.5 (effective concentration at an induction ratio of 1.5), Nrf2 activity: MCF7AREc32, 24 h exposure, linear regression; for induction of oxidative stress (Nrf2 activity exceeding a 1.5 induction ratio): MCF7AREc32, noncytotoxic concentrations
[2] = test system: AR-EcoScreen GR-KO-M1 cell line; details: for cytotoxicity (cell viability <80% vs vehicle control) / IC70, cytotoxicity: AR-EcoScreen GR-KO-M1, MTS test; for cytotoxicity (cell viability <80% vs vehicle control): up to 10 or 100 mg/L; for pIC50: read-out: interpolated IC50, cytotoxicity, AR-EcoScreen, converted to mmol/L
[3] = test system: DR-EcoScreen cell line; details: for IC70, cytotoxicity / cytotoxicity (cell viability <80% vs vehicle control): MTS test; for cytotoxicity (cell viability <80% vs vehicle control): up to 10 or 100 mg/L
[4] = test system: MCF7AREc32 cell line; details: for IC70, cytotoxicity / cytotoxicity (cell viability <80% vs vehicle control): MCF7AREc32, MTS test; for IC70, cytotoxicity: 24 h exposure, 70% response relative to vehicle control; for cytotoxicity (cell viability <80% vs vehicle control): up to 10 or 100 mg/L
[5] = test system: human bone osteoblasts; set-up: method as in Al-Ghafari et al. [55]; details: ref Al-Ghafari et al. [55], read-out: IC50 (MTT assay); cited from earlier work
[6] = test system: human bone osteoblasts; set-up: method as in Al-Ghafari et al. [55]; details: ref Al-Ghafari et al. [55], read-out: IC50 (LDH assay); cited from earlier work
[7] = test system: VM7Luc4E2 cell line; details: VM7Luc4E2, ATPase test; for cytotoxicity (cell viability <80% vs vehicle control): up to 10 or 100 mg/L; for IC80: read-out: IC80, cytotoxicity
[8] = test system: rat NR8383 alveolar macrophages; set-up: method as in Huang et al. [69]; details: highest tested 200 mg/L, ref Huang et al. [69]; cited from earlier work

Row | Structure (SMILES) | ECIR1.5 (effective concentration at an induction ratio of 1.5), Nrf2 activity [1] [mg/L] | cytotoxicity (cell viability <80% vs vehicle control) [2] | IC70, cytotoxicity ([3]; 24 h exposure) [µg/mL] | cytotoxicity (cell viability <80% vs vehicle control) [3] | cytotoxicity (cell viability <80% vs vehicle control) [4] | IC70, cytotoxicity ([2]; 24 h exposure) [mg/L] | cytotoxicity (cell viability <80% vs vehicle control) [7] | also measured
1 | [As] [As, arsenic, reference compound] | 0.11 | Cytotoxicity is shown; also recorded: cytotoxicity was identified | 0.83 | Cytotoxicity is shown; also recorded: cytotoxicity was identified | Cytotoxicity is shown; also recorded: cytotoxicity was identified |  |  | induction of oxidative stress (Nrf2 activity exceeding a 1.5 induction ratio) [1]: found to induce oxidative stress; pIC50 [2]: 3.77; pIC50 ([3]; read-out: interpolated IC50, cytotoxicity, converted to mmol/L): 4.85; IC70, cytotoxicity [4]: 8.1 µg/mL
2 | [Cd] [Cd, cadmium] | 0.24 | Cytotoxicity is shown; also recorded: cytotoxicity was identified |  | Cytotoxicity is shown; also recorded: cytotoxicity was identified | Cytotoxicity is shown; also recorded: cytotoxicity was identified | 2.6 |  | induction of oxidative stress (Nrf2 activity exceeding a 1.5 induction ratio) [1]: found to induce oxidative stress; pIC50 [2]: 4.28; pIC50 [5]: 4.49; IC70, cytotoxicity [4]: 9.1 µg/mL; pIC50 ([4]; read-out: interpolated IC50, cytotoxicity, MCF7AREc32, converted to mmol/L): 4.06; pIC50 [6]: 4.20
3 | [Ga] [Ga, gallium] | 0.83 | Cytotoxicity is shown; also recorded: Cytotoxic effects were most clearly observed | 100 | Cytotoxicity is shown; also recorded: Cytotoxic effects were most clearly observed |  | 50 | Cytotoxicity is shown; also recorded: Cytotoxic effects were most clearly observed | induction of oxidative stress (Nrf2 activity exceeding a 1.5 induction ratio) [1]: found to induce oxidative stress; IC70, cytotoxicity ([7]; 24 h exposure): 52 µg/mL; IC70, cytotoxicity ([7]; converted from mg/L): 750 µM; IC70, cytotoxicity ([2]; converted from mg/L): 0.72 mmol/L; IC70, cytotoxicity ([3]; converted from mg/L): 1400 µM
4 | [Gd] [Gd, Gadolinium] |  |  |  |  |  |  | Cytotoxicity is shown; also recorded: induce cytotoxic effects | IC80, cytotoxicity ([7]; 24 h exposure): 3.7 µg/mL; IC80 ([7]; converted from mg/L): 24 µM
5 | [Ge] [Ge, germanium] |  | Neither Ge nor In exhibited any cytotoxicity |  | Neither Ge nor In exhibited any cytotoxicity | Neither Ge nor In exhibited any cytotoxicity |  | Neither Ge nor In exhibited any cytotoxicity | 
6 | [Nd+3].[Nd+3].[O-2].[O-2].[O-2] [Nd2O3] |  |  |  |  |  |  |  | concentration up to which no noticeable cytotoxicity was observed [8]: 6250 ng/mL
7 | [Nd] [Nd, Neodymium] |  | Cytotoxicity is shown; also recorded: Cytotoxic effects were most clearly observed | 31 | Cytotoxicity is shown; also recorded: Cytotoxic effects were most clearly observed |  | 26 | Cytotoxicity is shown; also recorded: Cytotoxic effects were most clearly observed | IC70, cytotoxicity ([7]; 24 h exposure): 24 µg/mL; IC70, cytotoxicity ([7]; converted from mg/L): 170 µM; IC70, cytotoxicity ([2]; converted from mg/L): 0.18 mmol/L; IC70, cytotoxicity ([3]; converted from mg/L): 210 µM
8 | [Pb] [Pb, lead] |  |  |  |  |  |  |  | pIC50 [5]: 4.26; pIC50 [6]: 4.10
9 | [Te] [Te, tellurium] |  | Cytotoxicity is shown; also recorded: Cytotoxic effects were most clearly observed | 8.7 | Cytotoxicity is shown; also recorded: Cytotoxic effects were most clearly observed |  | 0.28 | Cytotoxicity is shown; also recorded: Cytotoxic effects were most clearly observed | IC70, cytotoxicity ([7]; 24 h exposure): 1.5 µg/mL; IC70, cytotoxicity ([7]; converted from mg/L): 12 µM; IC70, cytotoxicity ([2]; converted from mg/L): 2.2 × 10^–3 mmol/L; IC70, cytotoxicity ([3]; converted from mg/L): 68 µM
10 | [Tl] [Tl, thallium] |  |  |  |  | Cytotoxicity is shown; also recorded: Cytotoxicity for Tl was observed |  | Cytotoxicity is shown; also recorded: more evident | IC80, cytotoxicity ([7]; 24 h exposure): 9.0 µg/mL; IC80 ([7]; converted from mg/L): 44 µM
11 | [Yb] [Yb, Ytterbium] |  |  |  |  |  |  | Cytotoxicity is shown; also recorded: induce cytotoxic effects | IC80, cytotoxicity ([7]; 24 h exposure): 33 µg/mL; IC80 ([7]; converted from mg/L): 190 µM
12 | CC(C)(C)c1cc(O)ccc1O [tBHQ, tert-butylhydroquinone] | 0.27 |  |  |  |  |  |  | 
